The record followed here is patent US8835379B2, “Derivatives of CGRP” (Novo Nordisk A/S, priority 2009, dated 2014).

The nature of series [1]: Pharmacokinetic properties of CGRP and analogues, plasma level by CGRP ELISA. Type of series: in vivo. The conditions noted are these: male, Sprague Dawley, rat, sc, SD rats, single s.c. injection, Analog alpha1 151 nmol/kg, Analogue beta1 231 nmol/kg. How it is done:
Male Sprague Dawley rats (n=24) weighing approximately 250 g were used for the combined pharmacokinetic (T½, Cmaxetc.) and pharmacodynamic (GLP-1 release) study. The rats were divided in 4 groups with n=6 rats per group. The rats were treated with a single subcutaneous injection (1 ml/kg) of vehicle, alpha-CGRP (138 nmol/kg), Analogue beta1 (231 nmol/kg) or Analog alpha1 (151 nmol/kg). Blood (200 μl) was sampled from vena sublingualis from unanaesthetised rats pre-dose and at 0.5, 1, 3, 7 and 24 hours post dosing. Blood was collected in tubes containing EDTA. The samples were kept on ice and centrifuged. The plasma was kept at −20° C. until analysis for CGRP analog and total GLP-1.
A commercial available kit (Human CGRP ELISA, cat. #A05481, SPIbio) was used for monitoring the plasma levels of CGRP-analogues. Briefly, the assay was a two-sited enzyme-linked immuno sorbent assay (ELISA) using two antibodies against human CGRP. A monoclonal antibody was immobilized to the surface of micro plate wells. Five micro liter of plasma samples or calibrators were applied to the appropriate wells and incubated for 2 hours together with 100 μL buffer and 100 μL AChE-conjugated Fab′ fragment. […] The color intensity was determined by spectrophotometer at 405 nm. […] The lower limit of quantification of the modified CGRP assay was approximately 750 pM and the imprecision was (% CV)<10%.

Series [2] concerns the target CGRP receptor (calcitonin receptor-like receptor (CRLR), receptor activity modifying protein-1 (RAMP1)) (Homo sapiens, UniProt O60894+Q16602). The experiment in a line: CGRP-induced cAMP accumulation in CGRP receptor expressing cells (CHO, CRE luciferase reporter). The format is cell-based. How it is done:
Chinese hamster ovary (CHO) cells were stably transfected with calcitonin receptor-like receptor (CRLR), receptor activity modifying protein-1 (RAMP1) and CRE luciferase (cAMP responsive element for control of luciferase gene expression). Luciferase is a reporter-gene reporting accumulation of intracellular cAMP).
Cells were cultured in F12 media supplemented with GlutaMAX™ (Gibco cat no 31765-027), FBS (10%, Gibco 16140-071), Penicillin-streptomycin (1%, Lonza DE-17-602E), G418 (400 μg/ml, Gibco 10131-027), Blasticidine (10 μg/ml, Corning cat no 15205), Hygromycin (400 μg/ml, Calbiochem cat no 400052).
Cells were seeded in a 96 well plate (Packard #6005180), 20000 cells/well in 100 μl media on the day before experimentation. On the day of experimentation media was replaced by assay medium (Dulbecco's media w/o phenol red (Gibco cat no 11880-028) supplemented with 10% FBS (10%, Gibco 16140-071), Hepes (10 mM, Gibco cat no 15630), GlutaMAX™ (2 mM, Gibco cat no 35050), 50 μl/well.
Peptides were diluted in assay media before added to cells for stimulation, 50 μl/well.
Cells were incubated 5% CO2, 37° C. for 4 hours.
Assay medium and peptides were replaced by phosphate buffered saline (PBS, Gibco cat no 14040-091), 100 μl/well and LucLite™ (PerkinElmer, cat no 6076759), 100 μl/well were added. The plate was sealed before incubation for 30 min at room temperature (21° C.). Luciferase activity (luminescens, 7 s/well) was measured (TopCount®, NXT, Packard).
Dose-response curves were fitted by use of GraphPad Prism software and pEC50 values were calculated. Data were given as mean±SEM, n=2 and each analogue was tested twice.
(In general: cAMP levels reflect the balance of adenylyl cyclase and phosphodiesterase activity.)

A short description of series [3]: CGRP-induced reduction in food intake by automatic food intake measurements (FeedWin). The format is in vivo, Sprague Dawley (SD) rats. The note with it: SD rats, s.c., monitored for 48 hours, FIG. 4. The source says:
Upon arrival male Sprague Dawley (SD) rats were housed two per cage with a dividing wall between them. They were housed at reversed diurnal rhythm and with environmental enrichment. The rats were acclimatized to reversed diurnal rhythm for at least 1 week before being transferred to the experimental system cages (single housed). They were acclimatized to the experimental system cages for an additional 5-6 days before start of the experiment. The rats had ad libitum access to food (Altromin 1324) and water during acclimatization periods.
One day before start of the study the rats were divided in three or four groups (n=5-8) based on body weight (250-300 g).
16 hours before start of the study the rats were fasted. Food was returned in connection with dosing. The rats received a single injection subcutaneously (s.c., 1 ml/kg) with vehicle or CGRP analogue. Intraperitoneally dosing (i.p., 1 ml/kg) was used in the first experiment of the al analogue. The effect of analogues on food and water consumption was examined in a “FeedWIN” system (Ellegaard Systems A/S, Faaborg, Denmark). The system contained 32 stations. In each station the continuous water and food consumption for a single rat was recorded.
A station consisted of a cage with metal lid and two scales placed on each side of the cage. […] Data was collected each 15 minutes and up to 48 hours and expressed as accumulated food intake (Mean±SEM).

CGRP receptor (calcitonin receptor-like receptor (CRLR), receptor activity modifying protein-1 (RAMP1)), sequence (Q16602 23-461, species assumed): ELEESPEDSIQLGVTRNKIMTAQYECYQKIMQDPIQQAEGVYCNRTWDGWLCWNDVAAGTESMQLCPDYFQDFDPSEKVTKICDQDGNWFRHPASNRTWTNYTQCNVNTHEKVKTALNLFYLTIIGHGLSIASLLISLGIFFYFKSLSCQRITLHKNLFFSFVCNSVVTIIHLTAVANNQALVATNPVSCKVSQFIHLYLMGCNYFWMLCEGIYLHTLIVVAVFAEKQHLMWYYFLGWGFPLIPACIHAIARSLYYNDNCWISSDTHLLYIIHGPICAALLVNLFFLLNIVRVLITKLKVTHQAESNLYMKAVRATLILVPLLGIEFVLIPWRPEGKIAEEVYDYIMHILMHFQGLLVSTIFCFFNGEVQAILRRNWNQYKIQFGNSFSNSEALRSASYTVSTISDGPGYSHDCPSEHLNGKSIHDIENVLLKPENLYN
CGRP receptor (calcitonin receptor-like receptor (CRLR), receptor activity modifying protein-1 (RAMP1)), sequence (O60894 27-148, species assumed): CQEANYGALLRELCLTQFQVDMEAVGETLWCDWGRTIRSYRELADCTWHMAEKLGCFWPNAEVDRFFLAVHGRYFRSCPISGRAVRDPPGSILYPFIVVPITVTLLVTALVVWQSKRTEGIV

By Cmax is commonly meant the maximum level reached in the sampled fluid or tissue. In general, EC50 refers to the concentration needed to bring the measured effect to its halfway point. Molecule `CC(C)C[C@H](NC(=O)CNC(=O)[C@H](C)NC(=O)[C@H](CC(C)C)NC(=O)[C@H](CCCNC(=N)N)NC(=O)[C@H](Cc1c[nH]cn1)NC(=O)[C@@H](NC(=O)[C@@H](NC(=O)[C@@H]1CSSC[C@H](NC(=O)[C@H](CO)NC(=O)COCCOCCNC(=O)CC[C@H](NC(=O)CCCCCCCCCCCCCCCCC(=O)O)C(=O)O)C(=O)N[C@@H](CC(=O)O)C(=O)N[C@@H]([C@@H](C)O)C(=O)N[C@@H](C)C(=O)N[C@@H]([C@@H](C)O)C(=O)N1)C(C)C)[C@@H](C)O)C(=O)N[C@@H](CC(C)C)C(=O)N[C@@H](CO)C(=O)N[C@@H](CCCNC(=N)N)C(=O)N[C@@H](CO)C(=O)NCC(=O)NCC(=O)N[C@H](C(=O)N[C@H](C(=O)N[C@@H](CCCCN)C(=O)N[C@@H](CC(N)=O)C(=O)N[C@@H](CC(N)=O)C(=O)N[C@@H](Cc1ccccc1)C(=O)N[C@H](C(=O)N1CCC[C@H]1C(=O)N[C@H](C(=O)N[C@@H](CC(N)=O)C(=O)N[C@H](C(=O)NCC(=O)N[C@@H](CO)C(=O)N[C@@H](CCCCN)C(=O)N[C@@H](C)C(=O)N[C@@H](Cc1ccccc1)C(N)=O)C(C)C)[C@@H](C)O)C(C)C)C(C)C)C(C)C` [Analogue alpha 1, N-alpha-[2-(2-{2-[(S)-4-Carboxy-4-(17-carboxyheptadecanoylamino)butyrylamino]ethoxy}ethoxy)acetyl][Ser1]alpha-human CGRP peptide] gave a Cmax in series [1] of 250 nM. Moreover, the half-life in series [1] (read-out: T½) was greater than 7 h. Moreover, in series [2], the EC50 is 0.09 nM.

With “N-alpha-[2-(2-{2-[(S)-4-Carboxy-4-(17-carboxyheptadecanoylamino)butyrylamino]ethoxy}ethoxy)acetyl][Ser1]beta-human CGRP peptide [Analogue beta 1]”, in series [3], the accumulated food intake result is given as “Reduction in accumulated food intake”.
